Results on 17 compounds are retold here after patent US12390472B2 (SUZHOU SINOVENT PHARMACEUTICALS CO., LTD., priority 2018, dated 2025).

The structures appear in SMILES notation.

One test deals with EZH2 enzyme complex (Homo sapiens (Human), UniProt Q15910). Kind of test: Test on EZH2 inhibitory activity (TR-FRET). Particulars: EZH2 enzyme complex 25 ng/uL, histone H3 peptide 4 uM, SAM 2 uM, 300 min; read-out: IC50 of EZH2 inhibition. In kind it is biochemical. (In general: In TR-FRET formats the signal depends on donor and acceptor labels being close together.)
EZH2 enzyme complex, sequence (Q15910 whole entry): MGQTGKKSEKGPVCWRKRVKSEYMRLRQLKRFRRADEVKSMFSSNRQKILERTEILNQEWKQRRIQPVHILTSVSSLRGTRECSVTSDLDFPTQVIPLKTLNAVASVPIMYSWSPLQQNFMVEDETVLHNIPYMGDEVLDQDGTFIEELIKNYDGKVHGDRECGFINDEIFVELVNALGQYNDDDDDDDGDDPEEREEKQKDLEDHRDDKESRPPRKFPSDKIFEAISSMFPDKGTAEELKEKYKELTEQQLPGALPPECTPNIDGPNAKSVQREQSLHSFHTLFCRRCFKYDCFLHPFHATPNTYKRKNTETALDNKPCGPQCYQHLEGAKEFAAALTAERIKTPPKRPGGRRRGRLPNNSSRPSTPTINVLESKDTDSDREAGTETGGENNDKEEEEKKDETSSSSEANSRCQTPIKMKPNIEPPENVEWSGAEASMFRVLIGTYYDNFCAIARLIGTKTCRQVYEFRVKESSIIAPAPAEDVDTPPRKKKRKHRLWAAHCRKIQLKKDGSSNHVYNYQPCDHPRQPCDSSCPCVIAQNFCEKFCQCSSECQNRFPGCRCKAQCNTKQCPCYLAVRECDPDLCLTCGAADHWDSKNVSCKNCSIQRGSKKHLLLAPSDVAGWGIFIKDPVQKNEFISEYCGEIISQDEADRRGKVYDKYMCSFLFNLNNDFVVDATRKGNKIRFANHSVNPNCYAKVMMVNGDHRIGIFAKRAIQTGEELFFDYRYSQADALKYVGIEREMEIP
EZH2 enzyme complex, sequence (O75530 whole entry partner): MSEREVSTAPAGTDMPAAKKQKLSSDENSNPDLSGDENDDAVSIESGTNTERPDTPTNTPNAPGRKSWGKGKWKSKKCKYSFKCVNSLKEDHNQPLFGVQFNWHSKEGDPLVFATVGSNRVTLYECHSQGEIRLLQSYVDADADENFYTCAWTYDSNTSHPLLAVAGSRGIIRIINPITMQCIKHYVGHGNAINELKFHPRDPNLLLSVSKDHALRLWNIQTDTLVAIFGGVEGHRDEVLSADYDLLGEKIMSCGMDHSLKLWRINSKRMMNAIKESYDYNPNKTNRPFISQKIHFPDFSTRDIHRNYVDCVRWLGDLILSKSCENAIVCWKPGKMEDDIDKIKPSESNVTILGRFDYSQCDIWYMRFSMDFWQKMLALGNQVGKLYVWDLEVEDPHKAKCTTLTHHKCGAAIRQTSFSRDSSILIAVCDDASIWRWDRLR
EZH2 enzyme complex, sequence (Q15022 whole entry partner): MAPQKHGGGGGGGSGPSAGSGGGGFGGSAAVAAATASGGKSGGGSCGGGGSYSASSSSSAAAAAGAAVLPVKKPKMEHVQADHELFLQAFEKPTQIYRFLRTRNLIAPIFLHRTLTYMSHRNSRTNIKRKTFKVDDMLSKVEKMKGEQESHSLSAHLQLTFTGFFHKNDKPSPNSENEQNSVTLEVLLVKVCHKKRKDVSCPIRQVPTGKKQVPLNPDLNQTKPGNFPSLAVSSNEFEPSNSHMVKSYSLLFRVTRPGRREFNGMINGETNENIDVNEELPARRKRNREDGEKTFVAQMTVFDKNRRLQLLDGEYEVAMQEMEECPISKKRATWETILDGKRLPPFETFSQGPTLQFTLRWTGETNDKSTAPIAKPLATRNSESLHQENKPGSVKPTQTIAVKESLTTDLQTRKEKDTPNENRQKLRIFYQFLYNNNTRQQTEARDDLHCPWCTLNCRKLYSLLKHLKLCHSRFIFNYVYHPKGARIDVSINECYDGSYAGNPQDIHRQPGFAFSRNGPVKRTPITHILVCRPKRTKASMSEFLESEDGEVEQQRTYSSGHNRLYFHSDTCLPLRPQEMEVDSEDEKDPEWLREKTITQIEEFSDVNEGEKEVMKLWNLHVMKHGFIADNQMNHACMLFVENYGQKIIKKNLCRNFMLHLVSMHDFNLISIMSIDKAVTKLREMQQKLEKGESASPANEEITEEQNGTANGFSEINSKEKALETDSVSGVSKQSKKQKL
In a further test the test system is WSU-DLCL2. As to the kind of experiment: Methylated lysine of histone-H3 (H3K27Me3) detection by ELISA, WSU-DLCL2 cells. Particulars: Homo sapiens, WSUDLCL2, 168 h; WSU-DLCL2, 7 days treatment, H3K27Me3 normalized to total histone-3; read-out: IC50 of cell methylation, WSU-DLCL2. It counts as cell-based. The protocol: (§1) The operations for adherent cells and suspension cells cultured in 96-well plates were slightly different after they had been treated with compound (4-fold dilution 20 uM-0.009 nM, 3 duplicate wells) for 7 days, and the operations are summarized as follows: For adherent cells, after discarding the medium, 75 uL of 1-fold hypotonic lysis buffer (10 mM Tris-HCl, pH 7.5, containing halt protease inhibitor and PMSF with a final concentration of 1 mM) was added; the plate was frozen at −80° C. for at least 1 h or overnight; once the plate was taken away from the −80° C. environment, 120 uL (to a final volume of about 195 uL) of 1-fold hypotonic lysis buffer (containing protease inhibitor) was added, and the plate was thawed at room temperature and shaken for 2 min for mixing; and 8 uL (to a final volume of about 203 uL) of 2.5 M NaCl was added to each well to a final NaCl concentration of 100 mM and then the plate was shaken for an additional 2 min for mixing.
(§2) For suspension cells (final volume of medium was 100 uL/well), 25 uL of 5-fold hypotonic lysis buffer (50 mM Tris-HCl, pH 7.5, containing halt protease inhibitor and PMSF with a final concentration of 1 mM) was added, and the plate was frozen at −80° C. for at least 1 h or overnight. Once the plate was taken away from the −80° C. environment, 20 uL of 0.625 M NaCl was added to each well to a final NaCl concentration of about 100 mM, and the mixture was mixed well.
(§3) 75 uL or 100 uL of sample (with duplicate wells provided) was added to two 96-well ELISA plates (ThermoFisher Scientific; Immulon 4HBX 3885) and the plates were coated with total protein lysate and incubated overnight at 4° C. 50 uL of lysate was retained for protein quantitation if necessary. The sealing of the plates must be ensured. The plates were washed twice with 300 uL of 1×PBST (PBS containing 0.05% Tween 20) per well. Each well was blocked with 300 uL of dilution (PBS+2% BSA+0.05% Tween 20), incubated for 2 h at room temperature, and washed twice with 1×PBST. Primary antibodies were diluted with a dilution solution containing 1% BSA+0.05% Tween 20. 75-100 uL of anti-H3K27Me3 antibody (CST; 9733; 50% glycerol stock, 1:1,000) or anti-total histone-3 antibody (Abcam; ab1791; 50% glycerol stock, 1:10,000) was added to each well. The plates were incubated for 90 min at room temperature or incubated overnight at 4° C. The plates were washed three times with 1×PBST. 75-100 uL of anti-Rb-IgG-HRP secondary antibody (Cell Signaling Technology; 7074) was added per well, 1:2000 diluted secondary antibody for anti-H3K 27Me3 plate and 1:6000 diluted secondary antibody for anti-histone total histone-3 plate. The plates were incubated at room temperature for 90 min. The plate assayed with anti-histone-3 antibody was used to normalize the data for the corresponding plate assayed with anti-H3K 27me3. The plates must be washed at least three times with 1×PBST after primary or secondary antibody incubation. The plates were assayed by adding 75-100 uL of 3,3′,5,5′-tetramethylbenzidine substrate (CST or ThermoFisher Scientific; TMBS) per well and incubated away from light for 30 min at 37° C. The reaction was terminated by adding 100 uL of 0.5 M H2SO4 per well. The absorbance was read at 450 nm. Curve fitting was performed using Graph Pad program.

The test system of the next test is Pfeiffer. As to the kind of experiment: Methylated lysine of histone-H3 (H3K27Me3) detection by ELISA, Pfeiffer cells. In kind it is cell-based, human. Particulars: Homo sapiens, 168 h, 7 days treatment, H3K27Me3 normalized to total histone-3, read-out: IC50 of cell methylation, Pfeiffer. As for the experimental part: as §1, §2, §3
Background: In an ELISA, binding on a coated surface is turned into a signal by an enzyme label.

`CCN(c1cc(OC2CCC2)cc(C(=O)NCc2c(C)cc(C)[nH]c2=O)c1C)C1CCOCC1` [Example 1, 5-cyclobutoxy-N-((4,6-dimethyl-2-oxo-1,2-dihydropyridin-3-yl)methyl)-3-(ethyl(tetrahydro-2H-pyran-4-yl)amino)-2-methylbenzamide]: the concentration for half-maximal inhibition (IC50) at EZH2 enzyme complex was 0.01 to 0.1 µM; in the test with WSU-DLCL2, 0.05 to 0.5 µM; in the test on Pfeiffer, under 0.05 µM.

With `CCN(c1cc(OC2CC(C)C2)cc(C(=O)NCc2c(C)cc(C)[nH]c2=O)c1C)C1CCOCC1` (stereo not shown) [Example 2, N-((4,6-dimethyl-2-oxo-1,2-dihydropyridin-3-yl)methyl)-3-(ethyl(tetrahydro-2H-pyran-4-yl)amino)-2-methyl-5-(3-methylcyclobutoxy)benzamide], the IC50 lay within 0.01 to 0.1 µM at EZH2 enzyme complex, 0.5 to 1 µM in the test on WSU-DLCL2 and 0.05 to 0.5 µM in the test with Pfeiffer.

Consider `CCN(c1cc(OC2CC(F)(F)C2)cc(C(=O)NCc2c(C)cc(C)[nH]c2=O)c1C)C1CCOCC1` [Example 3, 5-(3,3-difluorocyclobutoxy)-N-((4,6-dimethyl-2-oxo-1,2-dihydropyridin-3-yl)methyl)-3-(ethyl(tetrahydro-2H-pyran-4-yl)amino)-2-methylbenzamide], for which the IC50 was 0.01 to 0.1 µM at EZH2 enzyme complex, 0.05 to 0.5 µM in the test with WSU-DLCL2 and under 0.05 µM in the test with Pfeiffer.

For `CCN(c1cc(O[C@H]2C[C@@H](CN3CCOCC3)C2)cc(C(=O)NCc2c(C)cc(C)[nH]c2=O)c1C)C1CCOCC1` [Example 6, N-((4,6-dimethyl-2-oxo-1,2-dihydropyridin-3-yl)methyl)-3-(ethyl(tetrahydro-2H-pyran-4-yl)amino)-2-methyl-5-(cis-3-(morpholinylmethyl)cyclobutoxy)benzamide], the IC50 at EZH2 enzyme complex is 0.01 to 0.1 µM; with WSU-DLCL2, 0.05 to 0.5 µM; with Pfeiffer it was under 0.05 µM.

Take `CCN(c1cc(O[C@H]2C[C@H](CN3CCOCC3)C2)cc(C(=O)NCc2c(C)cc(C)[nH]c2=O)c1C)C1CCOCC1` [Example 7, N-((4,6-dimethyl-2-oxo-1,2-dihydropyridin-3-yl)methyl)-3-(ethyl(tetrahydro-2H-pyran-4-yl)amino)-2-methyl-5-(trans-3-(morpholinylmethyl)cyclobutoxy)benzamide]: the results for the IC50 at EZH2 enzyme complex, with WSU-DLCL2 and in the test with Pfeiffer were 0.01 to 0.1 µM, 0.05 to 0.5 µM and under 0.05 µM, respectively.

As to `CCN(c1cc(SC2CCC2)cc(C(=O)NCc2c(C)cc(C)[nH]c2=O)c1C)C1CCOCC1` [Example 8, 5-(cyclobutylthio)-N-((4,6-dimethyl-2-oxo-1,2-dihydropyridin-3-yl)methyl)-3-(ethyl(tetrahydro-2H-pyran-4-yl)amino)-2-methylbenzamide], the IC50 on EZH2 enzyme complex was 0.01 to 0.1 µM; with WSU-DLCL2 it was over 1 µM; in the test on Pfeiffer, 0.05 to 0.5 µM.

In the case of `CCN(c1cc([S+]([O-])C2CCC2)cc(C(=O)NCc2c(C)cc(C)[nH]c2=O)c1C)C1CCOCC1` (stereo not shown) [Example 9, 5-(cyclobutylsulfinyl)-N-((4,6-dimethyl-2-oxo-1,2-dihydropyridin-3-yl)methyl)-3-(ethyl(tetrahydro-2H-pyran-4-yl)amino)-2-methylbenzamide], the half-inhibitory concentration (IC50) at EZH2 enzyme complex was in the range of 0.1 to 1 µM; with WSU-DLCL2 it was 0.5 to 1 µM; with Pfeiffer, 0.5 to 1 µM.

`CCN(c1cc(S(=O)(=O)C2CCC2)cc(C(=O)NCc2c(C)cc(C)[nH]c2=O)c1C)C1CCOCC1` [Example 10, 5-(cyclobutylsulfonyl)-N-((4,6-dimethyl-2-oxo-1,2-dihydropyridin-3-yl)methyl)-3-(ethyl(tetrahydro-2H-pyran-4-yl)amino)-2-methylbenzamide]: the IC50 at EZH2 enzyme complex is 0.1 to 1 µM; in the test with WSU-DLCL2, over 1 µM; with Pfeiffer, 0.5 to 1 µM.

In the case of `CCN(c1cc(OC2CCC2)cc(C(=O)NCc2c(C)cc(C)[nH]c2=O)c1Cl)C1CCOCC1` [Example 11, 2-chloro-5-cyclobutoxy-N-((4,6-dimethyl-2-oxo-1,2-dihydropyridin-3-yl)methyl)-3-(ethyl(tetrahydro-2H-pyran-4-yl)amino) benzamide], the IC50 at EZH2 enzyme complex was 0.01 to 0.1 µM; in the test on WSU-DLCL2 it was 0.05 to 0.5 µM; in the test with Pfeiffer, 0.05 to 0.5 µM.

Turning to `CCN(c1cc(C2CC2)cc(C(=O)NCc2c(C)cc(C)[nH]c2=O)c1C)C1CCOCC1` [Example 14, 5-cyclopropyl-N-((4,6-dimethyl-2-oxo-1,2-dihydropyridin-3-yl)methyl)-3-(ethyl(tetrahydro-2H-pyran-4-yl)amino)-2-methylbenzamide], the values for the IC50 in the test on WSU-DLCL2 and in the test with Pfeiffer were 0.05 to 0.5 µM and under 0.05 µM, respectively.

Consider `CCN(c1cc(O[C@H]2C[C@@H](N3C[C@@H](C)O[C@@H](C)C3)C2)cc(C(=O)NCc2c(C)cc(C)[nH]c2=O)c1C)[C@H]1C[C@@H](C)O[C@@H](C)C1` [Example 33], for which the values for the half-inhibitory concentration (IC50) at EZH2 enzyme complex and in the test on Pfeiffer were 0.1 to 1 µM and 0.05 to 0.5 µM, respectively.

As to `CCN(c1cc(O[C@H]2C[C@H](N3C[C@@H](C)O[C@@H](C)C3)C2)cc(C(=O)NCc2c(C)cc(C)[nH]c2=O)c1C)[C@H]1CC[C@H](N(C)CCOC)CC1` [Example 52, N-((4,6-dimethyl-2-oxo-1,2-dihydropyridin-3-yl)methyl)-5-(trans-3-(cis-2,6-dimethylmorpholinyl)cyclobutoxy)-3-(ethyl(trans-4-((2-methoxyethyl)(methyl)amino)cyclohexyl)amino)-2-methylbenzamide], the IC50 was 0.01 to 0.1 µM at EZH2 enzyme complex and 0.5 to 1 µM in the test with WSU-DLCL2.

On to `CCN(c1cc(O[C@H]2C[C@H](N3CC4CC(C3)O4)C2)cc(C(=O)NCc2c(C)cc(C)[nH]c2=O)c1Cl)C1CCOCC1` [Example 55], for which the IC50 is 0.01 to 0.1 µM at EZH2 enzyme complex and 0.05 to 0.5 µM in the test with WSU-DLCL2.

Regarding `CCN(c1cc(C2CC2CN2CCN(C(=O)OC)CC2)cc(C(=O)NCc2c(C)cc(C)[nH]c2=O)c1C)C1CCOCC1` (stereo not shown) [Example 80, methyl 4-((2-(3-(((4,6-dimethyl-2-oxo-1,2-dihydropyridin-3-yl)methyl)carbamoyl)-5-(ethyl(tetrahydro-2H-pyran-4-yl)amino)-4-methylphenyl)cyclopropyl)methyl)piperazine-1-carboxylate], the IC50 on EZH2 enzyme complex is 0.01 to 0.1 µM; in the test on WSU-DLCL2, under 0.05 µM.

As for `CCN(c1cc(C2CC2CN2CCOCC2)cc(C(=O)NCc2c(C)cc(C)[nH]c2=O)c1C)[C@H]1CC[C@H](N(C)CCOC)CC1` (stereo partly drawn) [Example 82, N-((4,6-dimethyl-2-oxo-1,2-dihydropyridin-3-yl)methyl)-3-(ethyl(trans-4-((2-methoxyethyl)(methyl)amino)cyclohexyl)amino)-2-methyl-5-(2-(morpholinylmethyl)cyclopropyl)benzamide], the results for the IC50 at EZH2 enzyme complex and in the test on WSU-DLCL2 were 0.01 to 0.1 µM and 0.05 to 0.5 µM, respectively.

With `CCN(c1cc(C2CC2CN2CCNCC2)cc(C(=O)NCc2c(C)cc(C)[nH]c2=O)c1Cl)C1CCOCC1` (stereo not shown) [Example 83, 2-chloro-N-((4,6-dimethyl-2-oxo-1,2-dihydropyridin-3-yl)methyl)-3-(ethyl(tetrahydro-2H-pyran-4-yl)amino)-5-(2-(piperazin-1-ylmethyl)cyclopropyl)benzamide], the IC50 is 0.01 to 0.1 µM on EZH2 enzyme complex and over 1 µM with WSU-DLCL2.

For the compound `CCN(c1cc(C2CC2CN2C[C@@H](C)O[C@@H](C)C2)cc(C(=O)NCc2c(C)cc(C)[nH]c2=O)c1Cl)C1CCOCC1` (stereo partly drawn) [Example 85, 2-chloro-N-((4,6-dimethyl-2-oxo-1,2-dihydropyridin-3-yl)methyl)-5-(2-(((2S,6R)-2,6-dimethylmorpholinyl)methyl)cyclopropyl)-3-(ethyl(tetrahydro-2H-pyran-4-yl)amino)benzamide], the IC50 at EZH2 enzyme complex is 0.1 to 1 µM; in the test with WSU-DLCL2, 0.5 to 1 µM.

Usually IC50 stands for the concentration that inhibits the measured activity by half.
